We go through 13 compounds from US8673951B2, “Isoxazoline-substituted benzamide compound and pesticide” (priority 2005, dated 2014).

What all share (assay type): in vivo
For experiment [1], the system named is oriental tea tortix (Homona magnanima). Put plainly: Insecticidal test against oriental tea tortix, Comparative Example 2 (Test Example 24, Table 18). The conditions noted are these: cabbage leaf dip, third instar larva, after 6 days. The method, then: (§1) A 10% emulsifiable concentrate of the compound of the present invention or comparative compound was diluted with water containing a spreading agent to prepare a chemical solution with a prescribed concentration. To the chemical solution was dipped leaves of cabbage for about 10 seconds, and after air-drying, they were placed in a laboratory dish, then 7-oriental tea tortix (Homona magnanima) in the stage of third instar larva per the dish were released therein, and the dish was covered with a perforated lid and contained at a thermostat chamber at 25° C. A number of dead insect(s) after 6 days was counted and a rate of dead insects was calculated by the following calculation equation. In the meantime, the test was carried out with two areas. Rate of dead insects (%)=(Number of dead insects/Number of released insects)×100 The rate of dead insects in each prescribed concentration of the compounds tested is shown in Table 18.

Experiment [2] concerns cabbage moth (Plutella xylostella). Put plainly: Insecticidal test against cabbage moth (Test Example 1). As to conditions: foliar, 144 h, read-out: insecticidal rate (rate of dead insects).
The test system of experiment [3] is American dog tick (Dermacentor variabilis). The experiment is described as follows: Insecticidal test against American dog tick (Test Example 20). As to conditions: 96 h, thin film in laboratory dish, 0.1 μg/cm^2 (*), protonymph, after 4 days, read-out: insecticidal rate (rate of dead insects). The method, then:
After 400 μl of acetone solution in which 4 mg of the compound of the present invention was dissolved in 40 ml of acetone (concentration 100 ppm) was coated on the bottom face and side face of two laboratory dishes having an inner diameter of 5.3 cm, acetone was vaporized to prepare a thin film of the compound of the present invention on the inner wall of the laboratory dish. As the surface area of the inner wall is 40 cm^2, the treated dosage is […]. […] A number of dead insect(s) after 4 days was counted and a rate of dead insects was calculated by the calculation equation similar to that in Test Example 1. Incidentally, the test was carried out with one district.

Experiment [4] deals with common cutworm (Spodoptera litura). Put plainly: Insecticidal test against common cutworm (Test Example 2). The conditions noted are these: in Brassica oleracea, foliar, 144 h, read-out: insecticidal rate (rate of dead insects). The method, then: A 10% emulsifiable concentrate (depending on the compounds, 10% wettable powder was applied for the test) of the compound of the present invention was diluted with water […] To the chemical solution was dipped leaves of cabbage for about 10 seconds, and after air-drying, they were placed in a laboratory dish, then 5-common cutworm (Spodoptera litura) in the stage of second instar larva per the dish were released therein, and the dish was covered with a lid and contained at a thermostat chamber at 25° C. […] Incidentally, the test was carried out with two districts.

For experiment [5], the system named is corn earworm (Helicoverpa armigera). The experiment is described as follows: Insecticidal test against corn earworm, Comparative Example 1 (Test Example 23, Table 17). As to conditions: cabbage leaf dip, third instar larva, after 6 days. How it is done:
as §1, with “then 7-corn earworm (Helicoverpa armigera)” for “then 7-oriental tea tortix (Homona magnanima)”, “C. Artificial feed (1 cm^3) was added after 2 days of treatment, and a” for “C. A”, “Table 17.” for “Table 18.”

As to `CC(=O)N(C(=O)c1ccc(C2=NOC(c3cc(Cl)cc(Cl)c3)(C(F)(F)F)C2)cc1C)c1cncnc1` (stereo not drawn) [5-165], the “Rate of dead insects” value in experiment [1] (0.1 ppm) was found to be 14.3%; in experiment [1] (0.3 ppm) it was 57.1%; in experiment [1] (1 ppm), 92.9%; in experiment [1] (3 ppm), 100%; in experiment [1] (10 ppm), 100%.

On to `CC(=O)N(C(=O)c1ccc(C2=NOC(c3cc(Cl)cc(Cl)c3)(C(F)(F)F)C2)cc1C)c1ncc(Cl)cn1` (stereo not drawn) [5-100, N-Acetyl-N-(5-chloro-2-pyrimidinyl)-4-[5-(3,5-dichlorophenyl)-5-trifluoromethyl-4,5-dihydroisoxazole-3-yl]-2-methyl benzoic acid amide], for which the pest or weed control at 100 ppm in experiment [2] and in experiment [4] was not below 80% each time. The pest or weed control at 0.1 µg/cm2 in experiment [3] was not below 80%.

On to `COC(=O)NC(=O)c1ccc(C2=NOC(c3cc(Cl)cc(Cl)c3)(C(F)(F)F)C2)cc1C` (stereo not drawn) [2-003, Methyl N-[4-[5-(3,5-dichlorophenyl)-5-trifluoromethyl-4,5-dihydroisoxazole-3-yl]-2-methylbenzoyl]carbamate], for which the pest or weed control at 100 ppm in experiment [2] and in experiment [4] was not below 80% each time. In addition, the pest or weed control at 0.1 µg/cm2 in experiment [3] was not below 80%.

As for `CON=CN(C)C(=O)c1ccc(C2=NOC(c3cc(Cl)cc(Cl)c3)(C(F)(F)F)C2)cc1C` (stereo not drawn) [7-003, 4-[5-(3,5-Dichlorophenyl)-5-trifluoromethyl-4,5-dihydroisoxazole-3-yl]-N-(methoxyiminomethyl)-N-methyl-2-methylbenzoic acid amide], in experiment [3], the pest or weed control at 0.1 µg/cm2 was not below 80%.

As for `CCN(C(=O)c1ccc(C2=NOC(c3cc(Cl)cc(Cl)c3)(C(F)(F)F)C2)cc1C)c1ccccc1` (stereo not drawn) [5-002, 4-[5-(3,5-Dichlorophenyl)-5-trifluoromethyl-4,5-dihydroisoxazole-3-yl]-N-ethyl-2-methyl benzoic acid anilide], the pest or weed control at 100 ppm in experiment [2] and in experiment [4] was not below 80% throughout. Besides, in experiment [3], the pest or weed control at 0.1 µg/cm2 was not below 80%.

Consider `Cc1cc(C2=NOC(C(F)(F)F)C2c2cc(Cl)cc(Cl)c2)ccc1C(=O)Nc1ncccn1` (stereo not drawn) [Comparative Compound B, reference compound], for which the “Rate of dead insects” value in experiment [1] (0.1 ppm) is 0%; in experiment [1] (0.3 ppm), 0%; in experiment [1] (1 ppm) it was 7.1%; in experiment [1] (3 ppm), 64.3%; in experiment [1] (10 ppm), 100%.

On to `Cc1cc(C2=NOC(c3cc(Cl)cc(Cl)c3)(C(F)(F)F)C2)ccc1C(=O)N(C(=O)C(C)C)c1ncc(Br)cn1` (stereo not drawn) [5-122, N-(5-Bromo-2-pyrimidinyl)-4-[5-(3,5-dichlorophenyl)-5-trifluoromethyl-4,5-dihydroisoxazole-3-yl]-N-isobutyryl-2-methyl benzoic acid amide], for which the pest or weed control at 10 ppm in experiment [2] and in experiment [4] was not below 80% in each case. Moreover, the pest or weed control at 0.1 µg/cm2 in experiment [3] is not below 80%.

For the compound `COC(=O)N(CC(F)(F)F)C(=O)c1ccc(C2=NOC(C(F)(F)F)C2c2cc(Cl)cc(Cl)c2)cc1C` (stereo not drawn) [Comparative Compound A, reference compound], the “Rate of dead insects” value in experiment [5] (1 ppm) worked out at 0%; in experiment [5] (3 ppm) it was 0%; in experiment [5] (10 ppm), 28.6%; in experiment [5] (33 ppm), 92.9%.

In the case of `COC(=O)N(COC(C)=O)C(=O)c1ccc(C2=NOC(c3cc(Cl)cc(Cl)c3)(C(F)(F)F)C2)cc1C` (stereo not drawn) [3-033], the “Rate of dead insects” value in experiment [5] (1 ppm) was 7.1%; in experiment [5] (3 ppm), 50.0%; in experiment [5] (10 ppm), 100%; in experiment [5] (33 ppm), 100%.

Take `CCON=CNC(=O)c1ccc(C2=NOC(c3cc(Cl)cc(Cl)c3)(C(F)(F)F)C2)cc1C` (stereo not drawn) [6-005, 4-[5-(3,5-Dichlorophenyl)-5-trifluoromethyl-4,5-dihydroisoxazole-3-yl]-N-(ethoxyimino-methyl)-2-methyl benzoic acid amide]: the pest or weed control at 10 ppm in experiment [2] and in experiment [4] was not below 80% each time. Also, the pest or weed control at 0.1 µg/cm2 in experiment [3] was not below 80%.

Regarding `CCO/N=C\NC(=O)c1ccc(C2=NOC(c3cc(Cl)cc(Cl)c3)(C(F)(F)F)C2)cc1OC(F)F` (stereo not drawn) [6-023, (Z)-4-[5-(3,5-Dichlorophenyl)-5-trifluoromethyl-4,5-dihydroisoxazole-3-yl]-2-difluoromethoxy-N-(ethoxyiminomethyl)benzoic acid amide], the pest or weed control at 100 ppm in experiment [2] and in experiment [4] was not below 80% throughout.

Turning to `CO/N=C\NC(=O)c1ccc(C2=NOC(c3cc(Cl)cc(Cl)c3)(C(F)(F)F)C2)cc1C` (stereo not drawn) [6-004, (Z)-4-[5-(3,5-Dichlorophenyl)-5-trifluoromethyl-4,5-dihydro-isoxazole-3-yl]-N-(methoxyiminomethyl)-2-methylbenzoic acid amide], the pest or weed control at 10 ppm in experiment [2] and in experiment [4] was not below 80% in each case. The pest or weed control at 0.1 µg/cm2 in experiment [3] was not below 80%.

For the compound `COCC(=O)N(C(=O)c1ccc(C2=NOC(c3cc(Cl)cc(Cl)c3)(C(F)(F)F)C2)cc1C)c1ncc(Cl)cn1` (stereo not drawn) [5-106, N-(5-Chloro-2-pyrimidinyl)-4-[5-(3,5-dichlorophenyl)-5-trifluoromethyl-4,5-dihydro-isoxazole-3-yl]-N-methoxyacetyl-2-methyl benzoic acid amide], the pest or weed control at 10 ppm in experiment [2] and in experiment [4] was not below 80% in each case. Besides, the pest or weed control at 0.1 µg/cm2 in experiment [3] is not below 80%.
